What follows are molecules tested against BTK C481S (His-TEV-hsBTK(328-659)(C481S)) (Homo sapiens (Human), UniProt Q06187, C481S) (assay: Assay B: microfluidic off-chip mobility shift assay against BTK C481S enzyme). Settings: BTK C481S mutant.
Chain of BTK C481S (His-TEV-hsBTK(328-659)(C481S)) (Q06187 328-659 C481S): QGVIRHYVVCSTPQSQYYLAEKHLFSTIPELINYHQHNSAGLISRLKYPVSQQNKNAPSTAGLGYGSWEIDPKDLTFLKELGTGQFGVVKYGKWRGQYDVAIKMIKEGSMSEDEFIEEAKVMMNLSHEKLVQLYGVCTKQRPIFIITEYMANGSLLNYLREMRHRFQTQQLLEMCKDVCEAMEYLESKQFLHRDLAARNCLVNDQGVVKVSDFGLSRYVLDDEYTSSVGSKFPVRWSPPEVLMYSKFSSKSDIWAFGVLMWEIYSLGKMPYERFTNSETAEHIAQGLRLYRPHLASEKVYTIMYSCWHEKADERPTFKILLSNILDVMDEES
Assay type: biochemical
Experimental: The mechanics of the assay platform are described by the vendor (PerkinElmer, Hopkinton, Mass.) on their website at the following URL: http://caliperls.com.
5 uL of enzyme buffer and 7.5 uL of ATP/KinKDR peptide substrate mix were added to Matrix (#4315) 384-well, sterile, flat-bottom polypropylene plates (Thermo Fisher Scientific, Hudson, N.H.) with 125 nL of serially diluted compounds prepared in 100% DMSO, and incubated for 90 min. at 25° C. Following the incubation period, reactions were terminated by adding 65 uL quench buffer consisting of 100 mM HEPES, pH 7.5, 0.015% Brij-35 (30%), 0.277% Coating Reagent #3 (PerkinElmer, Mountain View, Calif.), 5% DMSO. Terminated reactions were monitored at −2 PSI, −3000 V/−700 Volts in a LabChip 3000 plate reader from Caliper Life Sciences, a PerkinElmer Company (Hopkinton, Mass.), and the activity was quantified by laser-induced fluorescence measuring the charge/mass difference between substrate and product resulting from peptide phosphorylation. IC50 and efficacy were determined by plotting log [Inhibitor] vs. % Activity in GeneData Screener (Basel, Switzerland).
Molecule Cn1cc(-c2nc3c(-c4ccc(C5CCCN5C(=O)c5ccc(C(C)(C)C)cc5)cc4)ccnc3[nH]2)cn1 (centres unmarked) [Example 121, (4-tert-Butyl-phenyl)-(2-{4-[2-(1-methyl-1H-pyrazol-4-yl)-3H-imidazo[4,5-b]pyridin-7-yl]-phenyl}-pyrrolidin-1-yl)-methanone] has an IC50 of less than 0.1 µM. Molecule CC(C)(C)c1cc(C(=O)NCc2ccc(-c3ccnc4[nH]c(C5CCNC(=O)C5)nc34)cc2F)no1 (centres unmarked) [Example 29, 5-tert-Butyl-isoxazole-3-carboxylic acid 2-fluoro-4-[2-(2-oxo-piperidin-4-yl)-3H-imidazo[4,5-b]pyridin-7-yl]-benzylamide] has an IC50 of 0.1 to 1 µM.

The molecules below were run against full-length human BTK (Homo sapiens (Human), UniProt Q06187) (assay: Assay A: microfluidic off-chip mobility shift assay against BTK enzyme). Settings: not given.
Chain of full-length human BTK (Q06187 whole entry): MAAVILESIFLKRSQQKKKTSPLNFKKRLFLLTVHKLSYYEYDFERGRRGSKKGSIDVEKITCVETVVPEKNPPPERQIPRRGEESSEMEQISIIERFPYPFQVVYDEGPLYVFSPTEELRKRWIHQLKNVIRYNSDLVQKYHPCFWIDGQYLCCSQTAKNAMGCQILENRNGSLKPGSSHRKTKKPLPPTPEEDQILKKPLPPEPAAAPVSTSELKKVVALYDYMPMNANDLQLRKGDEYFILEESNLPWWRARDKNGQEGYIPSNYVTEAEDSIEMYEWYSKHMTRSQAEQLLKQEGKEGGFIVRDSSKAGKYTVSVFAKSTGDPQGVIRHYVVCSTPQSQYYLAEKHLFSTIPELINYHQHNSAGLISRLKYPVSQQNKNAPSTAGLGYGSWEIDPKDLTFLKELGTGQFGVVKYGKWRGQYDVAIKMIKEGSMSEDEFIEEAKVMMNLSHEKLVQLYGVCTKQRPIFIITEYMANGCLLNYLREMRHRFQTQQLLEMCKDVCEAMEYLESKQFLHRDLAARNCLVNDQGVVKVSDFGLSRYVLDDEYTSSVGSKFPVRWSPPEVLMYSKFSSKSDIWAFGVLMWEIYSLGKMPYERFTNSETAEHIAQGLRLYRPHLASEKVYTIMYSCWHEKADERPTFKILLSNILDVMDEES
Assay type: biochemical
Experimental: Assay A: Microfluidic Off-Chip Mobility Shift Assay Protocol for Potency Assessment Against BTK Enzyme
The protocol below describes microfluidic, off-chip mobility shift kinase assay to measure inherent potency of compounds against BTK enzyme.
5 uL of enzyme buffer and 7.5 uL of ATP/kinKDR peptide substrate mix were added to Matrix (#115304) 384-well, sterile, polypropylene plates (Thermo Fisher Scientific, Hudson, N.H.) with 125 nL of serially diluted compounds prepared in 100% DMSO, and incubated for 90 min. at 27° C. Following the incubation period, reactions were stopped by adding 60 uL stop buffer consisting of 100 mM HEPES, pH 7.5, 0.015% Brij-35 (30%), 0.277% Coating Reagent #3 (Caliper Life Sciences, Mountain View, Calif.), 5% DMSO. Stopped reactions were monitored at −2 PSI, −3000 V/−700 V in a LabChip 3000 plate reader from Caliper Life Sciences, a PerkinElmer Company (Hopkinton, Mass.), and the activity was measured by off-chip mobility shift assay measuring the charge/mass difference between substrate and product resulting from peptide phosphorilation. IC50 and efficacy were determined by plotting log [Inhibitor] vs. % Activity in GeneData Screener (Basel. Switzerland).
Cn1cc(-c2nc3c(-c4ccc(C5CCCN5C(=O)c5ccc(C(C)(C)C)cc5)cc4)ccnc3[nH]2)cn1 (centres unmarked) [Example 121, (4-tert-Butyl-phenyl)-(2-{4-[2-(1-methyl-1H-pyrazol-4-yl)-3H-imidazo[4,5-b]pyridin-7-yl]-phenyl}-pyrrolidin-1-yl)-methanone] was tested, and the IC50 was less than 0.1 µM. Cn1cc(-c2nc3c(-c4ccc(CN5CCOc6cc(C7CC7)cc(F)c6C5=O)nc4)ccnc3[nH]2)cn1 [Example 171, 8-cyclopropyl-6-fluoro-4-([5-[2-(1-methyl-1H-pyrazol-4-yl)-3H-imidazo[4,5-b]pyridin-7-yl]pyridin-2-yl]methyl)-2,3,4,5-tetrahydro-1,4-benzoxazepin-5-one] was tested, and the IC50 was less than 0.1 µM. CC(C)(C)c1cc(C(=O)NCc2ccc(-c3ccnc4[nH]c(C5CCNC(=O)C5)nc34)cc2F)no1 (centres unmarked) [Example 29, 5-tert-Butyl-isoxazole-3-carboxylic acid 2-fluoro-4-[2-(2-oxo-piperidin-4-yl)-3H-imidazo[4,5-b]pyridin-7-yl]-benzylamide] gave an IC50 of 1 to 5 µM. For Cn1cc(-c2nc3c(-c4ccc(CNS(C)(=O)=O)c(F)c4)ccnc3[nH]2)cn1 [Example 176, N-(2-fluoro-4-(2-(1-methyl-1H-pyrazol-4-yl)-3H-imidazo[4,5-b]pyridin-7-yl)benzyl)methanesulfonamide], the IC50 was greater than 5 µM. Cn1cc(-c2nc3c(-c4ccc(CNS(=O)(=O)CC5(CC#N)CC5)c(F)c4)ccnc3[nH]2)cn1 [Example 177, 1-(1-(cyanomethyl)cyclopropyl)-N-(2-fluoro-4-(2-(1-methyl-1H-pyrazol-4-yl)-3H-imidazo[4,5-b]pyridin-7-yl)benzyl)methanesulfonamide] showed an IC50 of 1 to 5 µM. For Cn1cc(-c2nc3c(-c4ccc(CNCc5ccc(F)c(F)c5)c(F)c4)ccnc3[nH]2)cn1 [Example 174, N-(3,4-difluorobenzyl)-1-(2-fluoro-4-(2-(1-methyl-1H-pyrazol-4-yl)-3H-imidazo[4,5-b]pyridin-7-yl)phenyl)methanamine], the IC50 was greater than 5 µM. In the case of Cn1cc(-c2nc3c(-c4ccc(CNCc5cccnc5)c(F)c4)ccnc3[nH]2)cn1 [Example 173, N-(2-fluoro-4-(2-(1-methyl-1H-pyrazol-4-yl)-3H-imidazo[4,5-b]pyridin-7-yl)benzyl)-1-(pyridin-3-yl)methanamine], the IC50 is reported as greater than 5 µM. For COc1ccc(-c2nc3c(-c4ccc(CNC(=O)c5nnc(C(C)(C)C)o5)c(F)c4)ccnc3[nH]2)nc1 [Example 158, 5-tert-butyl-N-([2-fluoro-4-[2-(5-methoxypyridin-2-yl)-3H-imidazo[4,5-b]pyridin-7-yl]phenyl]methyl)-1,3,4-oxadiazole-2-carboxamide], the IC50 was less than 0.1 µM. Work on Cn1cc(-c2nc3c(-c4ccc(CNS(=O)(=O)CCC5CCC5)c(F)c4)ccnc3[nH]2)cn1 [Example 178, 2-cyclobutyl-N-(2-fluoro-4-(2-(1-methyl-1H-pyrazol-4-yl)-3H-imidazo[4,5-b]pyridin-7-yl)benzyl)ethanesulfonamide] yielded an IC50 of 1 to 5 µM. For CC(C)(C)OC(=O)N1CC=C(c2nc3c(-c4ccc(CNC(=O)c5noc(C(C)(C)C)n5)c(F)c4)ccnc3[nH]2)CC1 [Example 137, tert-butyl 4-(7-(4-((5-(tert-butyl)-1,2,4-oxadiazole-3-carboxamido)methyl)-3-fluorophenyl)-3H-imidazo[4,5-b]pyridin-2-yl)-5,6-dihydropyridine-1(2H)-carboxylate], the IC50 was less than 0.1 µM. Cc1ccc(-n2ccn(-c3cccc(-c4ccnc5[nH]c(-c6ccc(C(=O)N7CCOCC7)cc6)nc45)c3CO)c2=O)cc1 [Example 96, 1-[2-(Hydroxymethyl)-3-(2-[4-[(morpholin-4-yl)carbonyl]phenyl]-3H-imidazo[4,5-b]pyridin-7-yl)phenyl]-3-(4-methylphenyl)-2,3-dihydro-1H-imidazol-2-one] gave an IC50 of 0.1 to 1 µM. With Cc1cc(-c2ccnc3[nH]c(-c4ccc(OCC(O)CO)cn4)nc23)ccc1CN1CCOc2cc(C3CC3)cc(F)c2C1=O (centres unmarked) [Example 170, 8-cyclopropyl-4-[(4-[2-[5-(2,3-dihydroxypropoxy)pyridin-2-yl]-3H-imidazo[4,5-b]pyridin-7-yl]-2-methylphenyl)methyl]-6-fluoro-2,3,4,5-tetrahydro-1,4-benzoxazepin-5-one] the IC50 was less than 0.1 µM. Cn1cc(-c2nc3c(-c4ccc5c(c4)CCN(C(=O)c4nc(C(C)(C)C)no4)C5)ccnc3[nH]2)cn1 [Example 154, (3-tert-Butyl-[1,2,4]oxadiazol-5-yl)-{6-[2-(1-methyl-1H-pyrazol-4-yl)-3H-imidazo[4,5-b]pyridin-7-yl]-3,4-dihydro-1H-isoquinolin-2-yl}-methanone] was tested, and the IC50 was greater than 5 µM. For NCc1ccc(-c2ccnc3[nH]c(-c4cnn(C5CCC5)c4)nc23)cc1F [Example 188, 4-[2-(1-Cyclobutyl-1H-pyrazol-4-yl)-3H-imidazo[4,5-b]pyridin-7-yl]-2-fluoro-benzylamine], the IC50 was 1 to 5 µM. Molecule CC(C)(C)c1nc(C(=O)NCc2ccc(-c3ccnc4[nH]c(-c5ccc(N6CCC(F)CC6)cn5)nc34)cc2F)no1 [Example 167, 5-tert-butyl-N-[(2-fluoro-4-[2-[5-(4-fluoropiperidin-1-yl)pyridin-2-yl]-3H-imidazo[4,5-b]pyridin-7-yl]phenyl)methyl]-1,2,4-oxadiazole-3-carboxamide] has an IC50 of less than 0.1 µM. Cc1ccc(S(=O)(=O)NCc2ccc(-c3ccnc4[nH]c(-c5cnn(C)c5)nc34)cc2F)cc1 [Example 175, N-(2-fluoro-4-(2-(1-methyl-1H-pyrazol-4-yl)-3H-imidazo[4,5-b]pyridin-7-yl)benzyl)-4-methylbenzenesulfonamide] was tested, and the IC50 was greater than 5 µM. With CN1CCC(c2ccc(-c3nc4c(-c5ccc(CNC(=O)c6noc(C(C)(C)C)n6)c(F)c5)ccnc4[nH]3)nc2)CC1 [Example 169, 5-tert-butyl-N-[(2-fluoro-4-[2-[5-(1-methylpiperidin-4-yl)pyridin-2-yl]-3H-imidazo[4,5-b]pyridin-7-yl]phenyl)methyl]-1,2,4-oxadiazole-3-carboxamide] the IC50 was less than 0.1 µM. In the case of Cn1cc(-c2nc3c(-c4ccc(C5(NC(=O)c6nnc(C(C)(C)C)o6)CC5)cc4)ccnc3[nH]2)cn1 [Example 97, 5-tert-Butyl-[1,3,4]oxadiazole-2-carboxylic acid (1-{4-[2-(1-methyl-1H-pyrazol-4-yl)-3H-imidazo[4,5-b]pyridin-7-yl]-phenyl}-cyclopropyl)-amide], the IC50 is reported as less than 0.1 µM. With Cn1cc(-c2nc3c(-c4ccc(CNCc5ccc(C(C)(C)C)cc5)c(F)c4)ccnc3[nH]2)cn1 [Example 181, N-(4-(tert-butyl)benzyl)-1-(2-fluoro-4-(2-(1-methyl-1H-pyrazol-4-yl)-3H-imidazo[4,5-b]pyridin-7-yl)phenyl)methanamine] the IC50 was greater than 5 µM. Molecule Cn1cc(-c2nc3c(-c4ccc(CNCc5cccc(C(C)(C)C)c5)c(F)c4)ccnc3[nH]2)cn1 [Example 180, N-(3-(tert-butyl)benzyl)-1-(2-fluoro-4-(2-(1-methyl-1H-pyrazol-4-yl)-3H-imidazo[4,5-b]pyridin-7-yl)phenyl)methanamine] has an IC50 greater than 5 µM. Molecule Cn1cc(-c2nc3c(-c4ccc(CNS(=O)(=O)CC5CCCS(=O)(=O)C5)c(F)c4)ccnc3[nH]2)cn1 (centres unmarked) [Example 179, 1-(1,1-dioxidotetrahydro-2H-thiopyran-3-yl)-N-(2-fluoro-4-(2-(1-methyl-1H-pyrazol-4-yl)-3H-imidazo[4,5-b]pyridin-7-yl)benzyl)methanesulfonamide] has an IC50 greater than 5 µM. Work on CN(C)c1ccc(-c2nc3c(-c4ccc(CNC(=O)c5nnc(C(C)(C)C)o5)c(F)c4)ccnc3[nH]2)nc1 [Example 172, 5-tert-butyl-N-[(4-[2-[5-(dimethylamino)pyridin-2-yl]-3H-imidazo[4,5-b]pyridin-7-yl]-2-fluorophenyl)methyl]-1,3,4-oxadiazole-2-carboxamide] yielded an IC50 of less than 0.1 µM. Molecule Cn1cc(-c2nc3c(-c4cccc(CNC(=O)c5noc(C(C)(C)C)n5)c4)ccnc3[nH]2)cn1 [Example 87, 5-tert-Butyl-N-([3-[2-(1-methyl-1H-pyrazol-4-yl)-3H-imidazo[4,5-b]pyridin-7-yl]phenyl]methyl)-1,2,4-oxadiazole-3-carboxamide] has an IC50 of 1 to 5 µM. In the case of CC(C)(C)c1noc(C(=O)NCc2ccc(-c3ccnc4[nH]c(-c5ccc(N6CCCCC6)cn5)nc34)cc2F)n1 [Example 157, 3-tert-Butyl-N-[(2-fluoro-4-[2-[5-(piperidin-1-yl)pyridin-2-yl]-3H-imidazo[4,5-b]pyridin-7-yl]phenyl)methyl]-1,2,4-oxadiazole-5-carboxamide], the IC50 is reported as less than 0.1 µM.

From patent publication US11098041B2 (Merck Patent GmbH, priority 2014, dated 2021)
